PMC6240894 (2018)

Legend:
[1] = tested on: 22AG (DNA, G4) AGGGTTAGGGTTAGGGTTAGGG; assay: fluorescence and UV/Vis titration; conditions: K+ 100 mM; 10 mM Tris, pH 7.4, 25 °C; lower optical response
[2] = tested on: sG4 (DNA, G4) GGGTGGGTAGGGTGGG; assay: UV/Vis and fluorescence titration, averaged; conditions: K+ 100 mM; 10 mM Tris, pH 7.4, 25 °C
[3] = tested on: VAV-1 (DNA, G4) GGGCAGGGAGGGAACTGGG; assay: UV/Vis and fluorescence titration, averaged; conditions: K+ 100 mM; 10 mM Tris, pH 7.4, 25 °C
[4] = tested on: c-myc (DNA, G4) TGAGGGTGGGTAGGGTGGGTAA; assay: UV/Vis and fluorescence titration, averaged; conditions: K+ 100 mM; 10 mM Tris, pH 7.4, 25 °C
[5] = tested on: 25Ceb (DNA, G4) AGGGTGGGTGTAAGTGTGGGTGGGT; assay: UV/Vis and fluorescence titration, averaged; conditions: K+ 100 mM; 10 mM Tris, pH 7.4, 25 °C
[6] = tested on: Kras 22 (DNA, G4) AGGGCGGTGTGGGAATAGGGAA; assay: UV/Vis and fluorescence titration, averaged; conditions: K+ 100 mM; 10 mM Tris, pH 7.4, 25 °C; site 1 of 2; K12 1.7 × 10^6; 1:2 fit of lower credibility
[7] = tested on: Kras 32 (DNA, G4) AGGGCGGTGTGGGAAGAGGGAAGAGGGGGAGG; assay: UV/Vis and fluorescence titration, averaged; conditions: K+ 100 mM; 10 mM Tris, pH 7.4, 25 °C; site 1 of 2; K12 4.1 × 10^5; 1:2 fit of lower credibility

- binding [1]: weak
- K11 [2]: 8.1e+06 M⁻¹
- K11 [3]: 1.2e+07 M⁻¹
- K11 [4]: 1e+07 M⁻¹
- K11 [5]: 900000 M⁻¹
- K11 [6]: 1.5e+07 M⁻¹
- K11 [7]: 5.9e+06 M⁻¹
Structure (SMILES): COCCOCCOCCOc1cc(CN2C(=CC3=C([O-])C(=Cc4sc5ccccc5[n+]4Cc4cc(OCCOCCOCCOC)c(OCCOCCOCCOC)c(OCCOCCOCCOC)c4)C3=C(C#N)C#N)Sc3ccccc32)cc(OCCOCCOCCOC)c1OCCOCCOCCOC
